Measured values from patent publication US10638959B2, “Oral pH and buffering capacity modifiers” (CAO Group, LLC, priority 2010, dated 2020).
“Also recorded” adds a separate entry of the source.

Assay: Immediate release of calcium ion of various salts by a calcium test kit by EM Quant
Assay type: physicochemical
Details: contact with water

Row | Molecule | Immediate release of calcium ion (availability of calcium ion)
1 | Calcium ascorbate [Calcium ascorbate (citrate)] | most readily available calcium ion source; also recorded: provided calcium ions on contact with water
2 | CC(O)C(=O)[O-].CC(O)C(=O)[O-].O.O.O.O.O.[Ca+2] (centres unmarked) [Calcium lactate pentahydrate] | most readily available calcium ion source
